Laboratory results taken from article PMC8802628, “Selective activation of PFKL suppresses the phagocytic oxidative burst” (Cell, 2021).

Target: T1, PFKL (Homo sapiens, UniProt P17858)
T1 construct: endogenous in cells; host or cells: THP-1 cell lysate
T1 sequence (P17858 2-780 limits assumed): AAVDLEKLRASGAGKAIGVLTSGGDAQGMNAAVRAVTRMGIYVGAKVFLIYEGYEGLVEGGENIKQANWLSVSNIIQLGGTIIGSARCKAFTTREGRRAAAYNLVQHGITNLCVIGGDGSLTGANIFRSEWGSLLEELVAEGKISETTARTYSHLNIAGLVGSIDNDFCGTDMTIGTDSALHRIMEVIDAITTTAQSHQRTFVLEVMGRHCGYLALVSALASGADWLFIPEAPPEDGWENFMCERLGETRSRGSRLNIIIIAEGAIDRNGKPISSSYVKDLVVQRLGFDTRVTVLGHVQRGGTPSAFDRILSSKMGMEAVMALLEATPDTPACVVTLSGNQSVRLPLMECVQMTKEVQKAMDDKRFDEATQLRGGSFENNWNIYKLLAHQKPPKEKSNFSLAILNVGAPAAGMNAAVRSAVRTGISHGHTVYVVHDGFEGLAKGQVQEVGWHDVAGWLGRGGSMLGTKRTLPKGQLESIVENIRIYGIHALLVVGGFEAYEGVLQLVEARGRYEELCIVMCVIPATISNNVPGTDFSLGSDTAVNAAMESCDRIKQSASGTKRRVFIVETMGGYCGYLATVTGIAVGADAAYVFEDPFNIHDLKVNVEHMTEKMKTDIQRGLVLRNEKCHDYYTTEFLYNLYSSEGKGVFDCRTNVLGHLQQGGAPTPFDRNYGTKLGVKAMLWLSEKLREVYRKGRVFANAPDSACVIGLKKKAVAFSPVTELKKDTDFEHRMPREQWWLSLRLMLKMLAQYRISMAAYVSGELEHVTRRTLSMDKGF
Assay: Thermal proteome profiling (TPP) of neutrophil lysates
Assay type: binding
Details: 10 μM NA-11, 37°C to 65°C
Description: Neutrophils (3 × 10^7) were treated with 50 nM PMA for 20 min. Cell were washed twice in D-PBS, resuspended in KB buffer (25 mM Tris-HCL pH 7.5, 1 mM DTT, 10 mM MgCl2) and frozen in liquid nitrogen. Lysates were prepared by 5-7 freeze-thaw cycles in KB buffer. Protein concentration was determined via Bradford assay and lysates were incubated on ice for 30 min with either 10 μM NA-11 or DMSO vehicle. Samples were analyzed in two formats: (1) classical thermal proteome profiling (TPP) with full melting curves using 16-plex TMT labeling (8 temperatures between 37-65°C), and (2) Proteome Integral Solubility Alteration (PISA) assay with aggregated protein abundance from a defined temperature range using 10-plex TMT labeling (Five replicates 44-58°C). […]
For the classical TPP, quantitative data from each temperature were used to generate a thermal titration curve and calculate a melting point. PSM level quantitation was log2 transformed and summarized to protein level by aggregating all PSMs from the same primary Uniprot reference, and systematic variation between the treatments was normalized at each temperature. […] A quality score is calculated for each protein by evaluating R squares, curve slopes and similarity in slopes between the two fitted curves. […] Fold changes and p values were calculated between pre-defined treatment groups by the MSstats package. […]

**Q.** For `CC(=O)Nc1ccc2c(c1)OCc1cc(-c3ccccc3C#CCCCO)nn1C2` [NA-11], which “thermal shift in melting temperature (Tm) of PFKL” value is on record?
**A.** 4 °C
